Test results taken from ChEMBL document CHEMBL3351608, “2-Phenylindole and Arylsulphonamide: Novel Scaffolds Bactericidal against Mycobacterium tuberculosis” (ACS Med Chem Lett, 2014).
Values after ≈ are worked out from the molar mass of the structure shown.

What was measured:
[1] = test system: Mycobacterium tuberculosis; assay: microbe, parasite or virus in culture; details: 120 h
[2] = test system: Mycobacterium tuberculosis; type: functional; details: H37Rv, 120 h

Structure (SMILES) | MIC [1] | MIC [2]
CC1COC2(CCN(c3nc(=O)c4cc(C(F)(F)F)cc([N+](=O)[O-])c4s3)CC2)O1 (centres undefined) | 0.01 µM (≈ 0.00431 µg/mL) | 
COCCN(C1CCN(Cc2c(-c3ccccc3)[nH]c3c(C)cccc23)C1)S(C)(=O)=O (centres undefined) | 1.6 µM (≈ 0.707 µg/mL) | 0.8 µM (≈ 0.353 µg/mL)
O=S(=O)(NC1CCN(Cc2ccncc2)CC1)c1ccc(-n2cccn2)cc1 | 1.6 µM (≈ 0.636 µg/mL) | 3.3 µM (≈ 1.31 µg/mL)
Cc1cc(-n2cccn2)ccc1S(=O)(=O)NC1CCN(Cc2ccncc2)CC1 |  | 0.8 µM (≈ 0.329 µg/mL)
Cc1cccc2c(CN3CCC(NS(C)(=O)=O)C3)c(-c3ccccc3)[nH]c12 (racemic) |  | 1.6 µM (≈ 0.614 µg/mL)
NNC(=O)c1ccncc1 [ISONIAZID] | 0.5 µM (≈ 0.0686 µg/mL) | 
CO[C@H]1/C=C/O[C@@]2(C)Oc3c(C)c(O)c4c(O)c(c(/C=N/N5CCN(C)CC5)c(O)c4c3C2=O)NC(=O)/C(C)=C\C=C\[C@H](C)[C@H](O)[C@@H](C)[C@@H](O)[C@@H](C)[C@H](OC(C)=O)[C@@H]1C [RIFAMPIN] | 12.5 µM (≈ 10.3 µg/mL) | 
